Laboratory results as given in ChEMBL document CHEMBL5316327, “Design and Synthesis of Orally Active Quinolyl Pyrazinamides as Sigma 2 Receptor Ligands for the Treatment of Pancreatic Cancer” (J Med Chem, 2023).
Activity calls are given as the source filed them. The calls are words filed in the database; no cut-off is given here.

Columns and labels:
[1] = target: Sigma intracellular receptor 2 (Homo sapiens, UniProt Q5BJF2); assay: Displacement of [3H][…]ditolylguanidine from human sigma 2 receptor transfected in human HEK293T cells assessed as inhibition constant by radioligand competition binding assay; format: cell-based
Chain of Sigma intracellular receptor 2 (Q5BJF2 whole entry): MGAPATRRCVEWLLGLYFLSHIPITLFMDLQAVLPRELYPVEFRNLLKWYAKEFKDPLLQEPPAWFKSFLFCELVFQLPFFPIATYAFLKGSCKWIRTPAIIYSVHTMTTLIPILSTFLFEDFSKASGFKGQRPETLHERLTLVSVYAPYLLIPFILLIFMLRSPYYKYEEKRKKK

[2] = system: HCT-116; assay: Induction of cell cycle arrest in human HCT-116 cells assessed as accumulation of cells in G2/M phase at 5 uM measured after 24 hrs by propidium iodide staining-based flow cytometric analysis (reference value: 10%); format: functional
[3] = system: MIA PaCa-2; assay: Synergistic ferroptosis activity in human MIA-PaCa-2 cells at upto 1 uM measured after 7 days in presence of chloroquine by crystal violet staining based analysis; format: functional, cell-based; conditions: time 7.0 day
[4] = Solubility of the compound; format: physicochemical
[5] = system: MIA PaCa-2; assay: Synergistic cytotoxicity in human MIA PaCa-2 cells at upto 1 uM measured after 7 days in presence of SC144 by crystal violet staining based analysis; format: functional, cell-based; conditions: time 7.0 day
[6] = system: HCT-116; assay: Induction of cell cycle arrest in human HCT-116 cells assessed as accumulation of cells in G2/M phase at 1 uM measured after 24 hrs by propidium iodide staining-based flow cytometric analysis (reference value: 10%); format: functional
[7] = target: Muscarinic acetylcholine receptor M2 (Homo sapiens, UniProt P08172); assay: Binding affinity to M2 receptor (unknown origin) assessed as inhibition constant
Chain of Muscarinic acetylcholine receptor M2 (P08172 whole entry): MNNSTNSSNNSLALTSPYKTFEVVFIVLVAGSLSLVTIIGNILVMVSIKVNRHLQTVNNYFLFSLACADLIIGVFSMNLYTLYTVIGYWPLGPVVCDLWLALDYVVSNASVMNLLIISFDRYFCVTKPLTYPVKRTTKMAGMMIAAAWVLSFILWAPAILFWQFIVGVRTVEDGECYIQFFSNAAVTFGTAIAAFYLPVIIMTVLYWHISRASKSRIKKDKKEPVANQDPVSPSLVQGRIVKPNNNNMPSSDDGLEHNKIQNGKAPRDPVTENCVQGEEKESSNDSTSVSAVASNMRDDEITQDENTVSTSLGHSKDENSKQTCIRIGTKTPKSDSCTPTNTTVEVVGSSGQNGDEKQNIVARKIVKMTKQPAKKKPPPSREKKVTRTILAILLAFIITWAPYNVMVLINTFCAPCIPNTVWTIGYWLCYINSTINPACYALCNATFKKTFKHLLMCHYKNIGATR

[8] = system: MIA PaCa-2; assay: Induction of cell cycle arrest in human MIA PaCa-2 cells assessed as accumulation of cells in G2/M phase at 1 uM measured after 24 hrs by propidium iodide staining-based flow cytometric analysis (reference value: 16%); format: functional
[9] = system: MIA PaCa-2; assay: Additive ferroptosis activity in human MIA-PaCa-2 cells at upto 1 uM measured after 7 days in presence of erastin by crystal violet staining based analysis; format: functional, cell-based; conditions: time 7.0 day
[10] = Metabolic stability in mouse liver microsomes assessed as half life at 10 uM measured upto 60 mins in presence of NADPH by LC-MS/MS analysis; format: ADME, Microsome; conditions: 1 h
[11] = system: MIA PaCa-2; assay: Synergistic ferroptosis activity in human MIA-PaCa-2 cells at upto 1 uM measured after 7 days in presence of FIN56 by crystal violet staining based analysis; format: functional, cell-based; conditions: time 7.0 day
[12] = Cytotoxicity against HPDE cells measured after 72 hrs by MTT assay; format: toxicity, cell-based; conditions: human
[13] = target: Alpha-2A adrenergic receptor (Homo sapiens, UniProt P08913); assay: Binding affinity to alpha2A receptor (unknown origin) assessed as inhibition constant
Chain of Alpha-2A adrenergic receptor (P08913 whole entry): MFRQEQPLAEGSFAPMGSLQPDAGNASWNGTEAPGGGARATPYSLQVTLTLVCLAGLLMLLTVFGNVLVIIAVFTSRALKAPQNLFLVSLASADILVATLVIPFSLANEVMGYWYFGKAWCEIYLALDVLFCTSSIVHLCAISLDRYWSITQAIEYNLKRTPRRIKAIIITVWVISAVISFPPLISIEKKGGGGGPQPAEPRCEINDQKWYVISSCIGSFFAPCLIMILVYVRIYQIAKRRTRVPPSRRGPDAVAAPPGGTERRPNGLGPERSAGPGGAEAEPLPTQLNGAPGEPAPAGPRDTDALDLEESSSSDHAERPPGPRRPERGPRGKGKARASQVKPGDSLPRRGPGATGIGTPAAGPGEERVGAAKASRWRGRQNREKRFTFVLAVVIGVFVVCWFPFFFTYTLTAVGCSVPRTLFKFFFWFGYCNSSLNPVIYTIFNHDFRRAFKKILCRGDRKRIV

[14] = system: HCT-116; assay: Induction of apoptosis in human HCT-116 cells assessed as necrotic cells at 1.0 uM measured after 48 hrs by Annexin V-Alexa Fluor 488/propidium iodide staining based flow cytometry (reference value: 9.06%); format: functional
[15] = system: HCT-116; assay: Induction of cell cycle arrest in human HCT-116 cells assessed as accumulation of cells in G0/G1 phase at 5 uM measured after 24 hrs by propidium iodide staining-based flow cytometric analysis (reference value: 43%); format: functional
[16] = target: 5-hydroxytryptamine receptor 2A (Homo sapiens, UniProt P28223); assay: Binding affinity to 5-HT2A receptor (unknown origin) assessed as inhibition constant
Chain of 5-hydroxytryptamine receptor 2A (P28223 whole entry): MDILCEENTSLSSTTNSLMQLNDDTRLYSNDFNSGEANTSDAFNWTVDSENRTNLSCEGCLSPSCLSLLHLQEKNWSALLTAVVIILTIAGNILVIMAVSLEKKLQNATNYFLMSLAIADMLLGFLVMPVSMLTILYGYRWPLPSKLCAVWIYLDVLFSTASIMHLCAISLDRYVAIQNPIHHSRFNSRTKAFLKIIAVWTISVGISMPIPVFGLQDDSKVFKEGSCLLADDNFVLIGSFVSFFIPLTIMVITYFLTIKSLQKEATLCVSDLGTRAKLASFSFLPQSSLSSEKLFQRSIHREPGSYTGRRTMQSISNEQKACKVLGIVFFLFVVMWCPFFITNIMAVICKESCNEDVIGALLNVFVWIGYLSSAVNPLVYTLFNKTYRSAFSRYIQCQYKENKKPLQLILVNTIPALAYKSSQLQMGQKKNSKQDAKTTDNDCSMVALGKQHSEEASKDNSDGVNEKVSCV

[17] = target: 5-hydroxytryptamine receptor 1B (Homo sapiens, UniProt P28222); assay: Binding affinity to 5-HT1B receptor (unknown origin) assessed as inhibition constant
Chain of 5-hydroxytryptamine receptor 1B (P28222 whole entry): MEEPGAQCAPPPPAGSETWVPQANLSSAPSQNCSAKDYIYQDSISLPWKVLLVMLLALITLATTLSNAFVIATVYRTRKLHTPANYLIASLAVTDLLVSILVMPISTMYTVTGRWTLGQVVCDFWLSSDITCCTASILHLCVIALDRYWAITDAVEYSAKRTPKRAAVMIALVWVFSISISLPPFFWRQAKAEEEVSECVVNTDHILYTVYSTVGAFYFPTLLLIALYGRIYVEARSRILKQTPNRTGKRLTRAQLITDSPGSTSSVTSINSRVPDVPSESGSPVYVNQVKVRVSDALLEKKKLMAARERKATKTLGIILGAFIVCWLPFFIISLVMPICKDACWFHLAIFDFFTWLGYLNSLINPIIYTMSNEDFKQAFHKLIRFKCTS

[18] = system: HCT-116; assay: Induction of cell cycle arrest in human HCT-116 cells assessed as accumulation of cells in G0/G1 phase at 1 uM measured after 24 hrs by propidium iodide staining-based flow cytometric analysis (reference value: 43%); format: functional
[19] = system: MIA PaCa-2; assay: Additive cytotoxicity against human MIA PaCa-2 cells at upto 1 uM measured after 7 days in presence of ammonium tetrathiomolybdate by crystal violet staining based analysis; format: functional, cell-based; conditions: time 7.0 day
[20] = system: PANC-1; assay: Induction of autophagy in human PANC-1 cells assessed as upregulation of LC-3 level at 1 to 10 uM measured after 24 hrs; format: functional, cell-based; conditions: dose 1-10 µM
[21] = Toxicity in C57BL/6 mouse assessed as effect on body weight at 30 mg/kg, po measured upto 32 days in presence of copper sulfate; format: organism-based; conditions: in vivo, 768 h, time < 32 day
[22] = system: MIA PaCa-2; assay: Induction of cell cycle arrest in human MIA PaCa-2 cells assessed as accumulation of cells in S phase at 5 uM measured after 24 hrs by propidium iodide staining-based flow cytometric analysis (reference value: 31%); format: functional
[23] = Oral bioavailability in CD-1 mouse plasma at 20 mg/kg; format: ADME, organism-based; conditions: in vivo
[24] = cells; conditions: Mus musculus, KPC2, 72 h
[25] = system: MIA PaCa-2; assay: Additive ferroptosis activity in human MIA-PaCa-2 cells at upto 1 uM measured after 7 days in presence of FIN56 by crystal violet staining based analysis; format: functional, cell-based; conditions: time 7.0 day
[26] = system: HCT-116; assay: Induction of apoptosis in human HCT-116 cells assessed as viable cells at 10.0 uM measured after 48 hrs by Annexin V-Alexa Fluor 488/propidium iodide staining based flow cytometry (reference value: 79.69%); format: functional; conditions: read-out: Activity
[27] = target: Histamine H2 receptor (Homo sapiens, UniProt P25021); assay: Binding affinity to histamine H2 receptor (unknown origin) assessed as inhibition constant
Chain of Histamine H2 receptor (P25021 whole entry): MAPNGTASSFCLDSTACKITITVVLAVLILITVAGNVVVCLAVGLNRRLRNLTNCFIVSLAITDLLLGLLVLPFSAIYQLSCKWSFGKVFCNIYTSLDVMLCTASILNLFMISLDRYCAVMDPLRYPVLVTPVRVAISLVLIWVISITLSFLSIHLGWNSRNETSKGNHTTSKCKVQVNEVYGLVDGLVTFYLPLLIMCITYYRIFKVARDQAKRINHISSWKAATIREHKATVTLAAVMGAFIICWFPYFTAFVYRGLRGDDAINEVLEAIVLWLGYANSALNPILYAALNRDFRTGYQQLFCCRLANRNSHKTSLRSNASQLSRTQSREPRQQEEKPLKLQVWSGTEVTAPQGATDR

[28] = system: MIA PaCa-2; assay: Additive cytotoxicity in human MIA PaCa-2 cells at upto 1 uM measured after 24 hrs in presence of roluperidone; format: functional, cell-based
[29] = system: MIA PaCa-2; assay: Induction of apoptosis in human MIA PaCa-2 cells assessed as necrotic cells at 5.0 uM measured after 48 hrs by Annexin V-Alexa Fluor 488/propidium iodide staining based flow cytometry (reference value: 7.03%); format: functional
[30] = Toxicity in C57BL/6 mouse assessed as effect on body weight at 30 mg/kg, po administered for 32 days and measured on day 1 to 3,5,6,8 to 32 in presence of copper sulfate; format: organism-based; conditions: in vivo, 768 h, time 32 day
[31] = target: D(3) dopamine receptor (Homo sapiens, UniProt P35462); assay: Binding affinity to dopamine D3 receptor (unknown origin) assessed as inhibition constant
Chain of D(3) dopamine receptor (P35462 whole entry): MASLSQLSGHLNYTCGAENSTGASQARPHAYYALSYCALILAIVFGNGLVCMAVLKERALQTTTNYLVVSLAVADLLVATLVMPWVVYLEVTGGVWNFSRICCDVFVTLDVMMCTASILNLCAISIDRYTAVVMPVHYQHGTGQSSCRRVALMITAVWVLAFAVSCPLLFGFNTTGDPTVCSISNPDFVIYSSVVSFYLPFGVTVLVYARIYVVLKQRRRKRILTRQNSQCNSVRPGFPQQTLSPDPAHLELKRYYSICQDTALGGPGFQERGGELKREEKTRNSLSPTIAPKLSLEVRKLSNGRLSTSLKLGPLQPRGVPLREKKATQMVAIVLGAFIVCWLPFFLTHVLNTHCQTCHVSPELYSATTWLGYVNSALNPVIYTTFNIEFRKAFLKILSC

[32] = Cytotoxicity against HEK293 cells measured after 72 hrs by MTT assay; format: toxicity, cell-based; conditions: human
[33] = system: MIA PaCa-2; assay: Induction of apoptosis in human MIA PaCa-2 cells assessed as necrotic cells at 10.0 uM measured after 48 hrs by Annexin V-Alexa Fluor 488/propidium iodide staining based flow cytometry (reference value: 7.03%); format: functional
[34] = system: MIA PaCa-2; assay: Induction of apoptosis in human MIA PaCa-2 cells assessed as viable cells at 1.0 uM measured after 48 hrs by Annexin V-Alexa Fluor 488/propidium iodide staining based flow cytometry (reference value: 82.23%); format: functional; conditions: read-out: Activity
[35] = AUC (0 to time of last detectable concentration) in CD-1 mouse plasma at 10 mg/kg, iv; format: ADME, organism-based; parameters: dose 10 mg/kg, route iv
[36] = system: MIA PaCa-2; assay: Induction of cell cycle arrest in human MIA PaCa-2 cells assessed as accumulation of cells in G2/M phase at […] measured after 24 hrs by propidium iodide staining-based flow cytometric analysis (reference value: 16%); format: functional; conditions: dose 2.5 µM
[37] = system: MIA PaCa-2; assay: Induction of cell cycle arrest in human MIA PaCa-2 cells assessed as accumulation of cells in S phase at 10 uM measured after 24 hrs by propidium iodide staining-based flow cytometric analysis (reference value: 31%); format: functional

CCN(CC)CCCC(C)Nc1cnc(C(=O)Nc2ccc(Cl)c3cccnc23)cn1 (configuration not stated)
Ki [1]: 0.047 µM | Activity [2]: 22% | Activity [3]: Active | solubility [4]: > 5000 µg/mL | Activity [5]: inactive | Activity [6]: 25% | Ki [7]: 0.68 µM | Activity [8]: 13% | Activity [9]: Active | t1/2 [10]: 1 h | Activity [11]: Active | IC50 at 72 h [12]: 0.3 µM | Ki [13]: 2.74 µM | Activity [14]: 9.72% | Activity [15]: 44% | Ki [16]: 1.25 µM | Ki [17]: 0.646 µM | Activity [18]: 41% | Activity [19]: inactive | Activity [20]: Active | Activity [21]: Non-Toxic | Activity [22]: 22% | F [23]: 60% | IC50 [24]: 2.7 µM | Activity [25]: Active | viability at 10 µM [26]: 32.9% | Ki [27]: 91.1 µM | Activity [28]: Active | Activity [29]: 5.32% | Activity [30]: Non-Toxic | Ki [31]: 0.638 µM | IC50 at 72 h [32]: 1.2 µM | Activity [33]: 7.21% | viability at 1 µM [34]: 54.6% | AUC [35]: 2600 ng·h/mL | Activity [36]: 16% | Activity [37]: 14%
